This passage reports EC50 and IC50 results from patent US20240246964A1 (Arbutus Biopharma Corporation, priority 2021, published 2024).

In one experiment the target is human PD-L1 (Homo sapiens (Human), UniProt Q9NZQ7). The experiment can be described thus: T cell activation luciferase reporter cell culture system (T Cell Activation Assay). The experiment is classed as cell-based. The following applies: luciferase reporter assay; PD-L1 aAPC/CHO-K1 cells with PD-1 effector Jurkat T cells. For orientation: Reporter assays use an easily measured gene product as a stand-in for the process of interest.
Chain of human PD-L1 (Q9NZQ7 19-290): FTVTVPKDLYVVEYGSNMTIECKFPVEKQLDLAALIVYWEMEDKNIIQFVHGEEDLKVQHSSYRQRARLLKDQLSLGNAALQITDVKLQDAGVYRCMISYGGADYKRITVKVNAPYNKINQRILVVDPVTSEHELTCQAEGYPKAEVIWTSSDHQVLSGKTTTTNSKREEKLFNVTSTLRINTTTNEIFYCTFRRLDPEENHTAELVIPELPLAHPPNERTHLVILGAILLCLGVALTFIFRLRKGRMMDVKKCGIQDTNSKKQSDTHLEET

In experiment [1] the target is PD-L1 His protein / PD-1 Fc protein (Homo sapiens (Human), UniProt Q9NZQ7). The experiment can be described thus: HTRF Assay (PD-1/PD-L1 interaction). The experiment is classed as binding. The following applies: PD-L1 His 6 nM, PD-1 Fc 6 nM. (Time-resolved FRET reads energy transfer from a long-lived donor to a nearby acceptor.)
Chain of PD-L1 His protein / PD-1 Fc protein (Q9NZQ7 19-238): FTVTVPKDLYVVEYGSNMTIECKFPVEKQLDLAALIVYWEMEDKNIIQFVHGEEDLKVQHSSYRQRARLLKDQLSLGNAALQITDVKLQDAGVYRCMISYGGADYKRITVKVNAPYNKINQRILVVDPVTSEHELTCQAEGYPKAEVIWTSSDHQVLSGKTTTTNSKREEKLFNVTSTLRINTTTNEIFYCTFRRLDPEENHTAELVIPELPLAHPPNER

Usually EC50 stands for the concentration that produces a half-maximal response. Lower therefore signals a more potent agent. One may read the IC50 as the concentration that gives 50% inhibition. A lower IC50 goes with inhibition by little substance. `CCC(=O)N1CCC(NCc2ccc(-c3nccc(-c4cccc(-c5ccc(CNC6CCN(C(=O)CC)CC6)c(OC)n5)c4Cl)c3Cl)cc2OC)CC1` [Example 344, 1-(4-(((6-(2-Chloro-3-(3-chloro-2-(3-methoxy-4-(((1-propionylpiperidin-4-yl)amino)methyl)phenyl)pyridin-4-yl)phenyl)-2-methoxypyridin-3-yl)methyl)amino)piperidin-1-yl)propan-1-one] returned a concentration giving a half-maximal response (EC50) on human PD-L1 of 14.9 nM. Also, the concentration for half-maximal inhibition (IC50) in experiment [1] came to 6.41 nM.

`COc1cc(-c2nccc(-c3cccc(-c4ccc(CN5CCC6(CC5)CC(=O)N6)c(OC)n4)c3Cl)c2Cl)ccc1CN1CCC2(CC1)CC(=O)N2` [Example 353, 7-((6-(2-Chloro-3-(3-chloro-2-(3-methoxy-4-((2-oxo-1,7-diazaspiro[3.5]nonan-7-yl)methyl)phenyl)pyridin-4-yl)phenyl)-2-methoxypyridin-3-yl)methyl)-1,7-diazaspiro[3.5]nonan-2-one]: the 50% effective concentration (EC50) on human PD-L1 was no less than 10000 nM. This molecule also returned an IC50 in experiment [1] of 0.16 nM.

The molecule `COc1cc(-c2nccc(-c3cccc(-c4ccc(CN5CCC(NC(C)=O)CC5)c(OC)n4)c3Cl)c2Cl)ccc1CN1CC2(CNC(=O)C2)C1` [Example 355, N-(1-((6-(2-Chloro-3-(3-chloro-2-(3-methoxy-4-((7-oxo-2,6-diazaspiro[3.4]octan-2-yl)methyl)phenyl)pyridin-4-yl)phenyl)-2-methoxypyridin-3-yl)methyl)piperidin-4-yl)acetamide] showed an EC50 on human PD-L1 of 28.7 nM. The same molecule registered a 50% inhibitory concentration (IC50) in experiment [1] of 1.27 nM.

Turning to `COc1cc(-c2nccc(-c3cccc(-c4ccc(CNCCCNC(C)=O)c(OC)n4)c3Cl)c2Cl)ccc1CNCCCNC(C)=O` [Example 358, N-(3-(((6-(3-(2-(4-(((3-Acetamidopropyl)amino)methyl)-3-methoxyphenyl)-3-chloropyridin-4-yl)-2-chlorophenyl)-2-methoxypyridin-3-yl)methyl)amino)propyl) acetamide], the EC50 on human PD-L1 came out at 64.4 nM. In experiment [1], the IC50 was found to be 0.12 nM.

On human PD-L1, `COc1cc(-c2nccc(-c3cccc(-c4ccc(CNC5CCN(C(C)=O)CC5)c(OC)n4)c3Cl)c2Cl)ccc1CN1CC2(COC2)C1` [Example 380, 1-(4-(((6-(3-(2-(4-((2-Oxa-6-azaspiro[3.3]heptan-6-yl)methyl)-3-methoxyphenyl)-3-chloropyridin-4-yl)-2-chlorophenyl)-2-methoxypyridin-3-yl)methyl)amino)piperidin-1-yl)ethan-1-one] gave a concentration for a half-maximal effect (EC50) of 20.5 nM. Moreover, the IC50 in experiment [1] amounted to 1.43 nM.

`COc1cc(-c2nccc(-c3cccc(-c4ccc(CNC5CCN(C(C)=O)CC5)c(OC)n4)c3Cl)c2Cl)ccc1CNC1CC(C)(C)C1` [Example 381, 1-(4-(((6-(2-Chloro-3-(3-chloro-2-(4-(((3,3-dimethylcyclobutyl)amino)methyl)-3-methoxyphenyl)pyridin-4-yl)phenyl)-2-methoxypyridin-3-yl)methyl)amino)piperidin-1-yl)ethan-1-one] yielded a concentration for a half-maximal effect (EC50) on human PD-L1 of 53.3 nM. In addition, half-maximal inhibition in experiment [1] (IC50) required 0.184 nM.

As to `COc1cc(-c2nccc(-c3cccc(-c4ccc(CNC5CCN(C(C)=O)CC5)c(OC)n4)c3Cl)c2Cl)ccc1CNC1CCN(S(C)(=O)=O)CC1` [Example 383, 1-(4-(((6-(2-Chloro-3-(3-chloro-2-(3-methoxy-4-(((1-(methylsulfonyl)piperidin-4-yl)amino)methyl)phenyl)pyridin-4-yl)phenyl)-2-methoxypyridin-3-yl)methyl)amino)piperidin-1-yl)ethan-1-one], the response on human PD-L1 was half-maximal at 14.4 nM (EC50). This molecule also came in with an IC50 in experiment [1] of 0.998 nM.

`COc1cc(-c2nccc(-c3cccc(-c4ccc(CN5CC(C)(O)C5)c(OC)n4)c3Cl)c2Cl)ccc1CN1CC(C)(O)C1` [Example 396, 1-((6-(2-Chloro-3-(3-chloro-2-(4-((3-hydroxy-3-methylazetidin-1-yl)methyl)-3-methoxyphenyl)pyridin-4-yl)phenyl)-2-methoxypyridin-3-yl)methyl)-3-methylazetidin-3-ol] gave a concentration for a half-maximal effect (EC50) at human PD-L1 of 15.3 nM. The molecule also came in with an IC50 in experiment [1] of 1.38 nM.

For the molecule `COCC(=O)N1CCC(NCc2ccc(-c3nccc(-c4cccc(-c5ccc(CNC6CCN(C(=O)COC)CC6)c(OC)n5)c4Cl)c3Cl)cc2OC)CC1` [Example 397, 1-(4-(((6-(2-Chloro-3-(3-chloro-2-(3-methoxy-4-(((1-(2-methoxyacetyl)piperidin-4-yl)amino)methyl)phenyl)pyridin-4-yl)phenyl)-2-methoxypyridin-3-yl)methyl)amino)piperidin-1-yl)-2-methoxyethan-1-one], a half-maximal response at human PD-L1 (EC50) required 5.71 nM. For the same molecule, the 50% inhibitory concentration (IC50) in experiment [1] was found to be 0.128 nM.

Take `COc1cc(-c2nccc(-c3cccc(-c4ccc(CN5CC6(CCC(=O)N6)C5)c(OC)n4)c3Cl)c2Cl)ccc1CN1CC2(CCC(=O)N2)C1` [Example 398, 2-((6-(2-Chloro-3-(3-chloro-2-(3-methoxy-4-((6-oxo-2,5-diazaspiro[3.4]octan-2-yl)methyl)phenyl)pyridin-4-yl)phenyl)-2-methoxypyridin-3-yl)methyl)-2,5-diazaspiro[3.4]octan-6-one]: the half-maximal effective concentration (EC50) on human PD-L1 came to 8.54 nM. Also, in experiment [1], the IC50 was 0.278 nM.

On human PD-L1, `COc1cc(-c2nccc(-c3cccc(-c4ccc(CNC5CCN(C(C)=O)CC5)c(OC)n4)c3C)c2Cl)ccc1CNC1CCN(C(C)=O)CC1` [Example 399, 1-(4-(((6-(3-(2-(4-(((1-acetylpiperidin-4-yl)amino)methyl)-3-methoxyphenyl)-3-chloropyridin-4-yl)-2-methylphenyl)-2-methoxypyridin-3-yl)methyl)amino)piperidin-1-yl)ethan-1-one] returned an EC50 of 77.7 nM. Moreover, in experiment [1], the IC50 was 0.185 nM.

`COc1cc(-c2nccc(-c3cccc(-c4ccc(CN5CC6(CNC(=O)C6)C5)c(OC)n4)c3Cl)c2Cl)ccc1CN1CCC(NC(C)=O)CC1` [Example 400, N-(1-(4-(3-chloro-4-(2-chloro-3-(6-methoxy-5-((7-oxo-2,6-diazaspiro[3.4]-octan-2-yl)methyl)pyridin-2-yl)-phenyl)pyridin-2-yl)-2-methoxybenzyl)piperidin-4-yl)acetamide] yielded an EC50 at human PD-L1 of 16.4 nM. Also, half-maximal inhibition in experiment [1] (IC50) was put at 0.272 nM.

At human PD-L1, `COc1cc(-c2nccc(-c3cccc(-c4ccc(CNC[C@H]5CNC(=O)C5)c(OC)n4)c3Cl)c2Cl)ccc1CNC[C@H]1CNC(=O)C1` [Example 405, (S)-4-((((6-(2-Chloro-3-(3-chloro-2-(3-methoxy-4-(((((S)-5-oxopyrrolidin-3-yl)methyl)amino)methyl)phenyl)pyridin-4-yl)phenyl)-2-methoxypyridin-3-yl)methyl)amino)methyl)pyrrolidin-2-one] registered an EC50 of 24 nM. In experiment [1], this molecule showed a half-maximal inhibitory concentration (IC50) of 0.237 nM.

`COCC(=O)N1CCC(NCc2ccc(-c3nccc(-c4cccc(-c5ccc(CNC6CCN(C(C)=O)CC6)c(OC)n5)c4Cl)c3Cl)cc2OC)CC1` [Example 413, 1-(4-((4-(4-(3-(5-(((1-Acetylpiperidin-4-yl)amino)methyl)-6-methoxypyridin-2-yl)-2-chlorophenyl)-3-chloropyridin-2-yl)-2-methoxybenzyl)amino)piperidin-1-yl)-2-methoxyethan-1-one] gave an EC50 at human PD-L1 of 16.1 nM. Also, in experiment [1], inhibition was half-maximal at 1.45 nM (IC50).

Consider `COc1cc(-c2nccc(-c3cccc(-c4ccc(CNC[C@@H]5CCC(=O)N5)c(OC)n4)c3Cl)c2C)ccc1CNC[C@@H]1CCC(=O)N1` [Example 414, (S)-5-((((6-(2-Chloro-3-(2-(3-methoxy-4-(((((S)-5-oxopyrrolidin-2-yl)methyl)amino)methyl)phenyl)-3-methylpyridin-4-yl)phenyl)-2-methoxypyridin-3-yl)methyl)amino)methyl)pyrrolidin-2-one], for which, at human PD-L1, the EC50 came to 29.4 nM. The molecule further showed an IC50 in experiment [1] of 1.58 nM.

In the case of `COc1cc(-c2nccc(-c3cccc(-c4ccc(CN5CC6(CNC(=O)C6)C5)c(OC)n4)c3C)c2C)ccc1CN1CC2(CNC(=O)C2)C1` [Example 415, 2-((2-methoxy-6-(3-(2-(3-methoxy-4-((7-oxo-2,6-diazaspiro[3.4]octan-2-yl)methyl)phenyl)-3-methylpyridin-4-yl)-2-methylphenyl)pyridin-3-yl)methyl)-2,6-diazaspiro[3.4]octan-7-one], the concentration giving a half-maximal response (EC50) on human PD-L1 stood at 5100 nM. The 50% inhibitory concentration (IC50) in experiment [1] is 0.25 nM.

Take `COc1cc(-c2nccc(-c3cccc(-c4ccc(CN5CC6(C5)CN(C(C)=O)C6)c(OC)n4)c3C)c2C)ccc1CN1CC2(C1)CN(C(C)=O)C2` [Example 416, 1-(6-((6-(3-(2-(4-((6-Acetyl-2,6-diazaspiro[3.3]heptan-2-yl)methyl)-3-methoxyphenyl)-3-methylpyridin-4-yl)-2-methylphenyl)-2-methoxypyridin-3-yl)methyl)-2,6-diazaspiro[3.3]heptan-2-yl)ethan-1-one]: the EC50 on human PD-L1 is no less than 10000 nM. Besides, in experiment [1], half-maximal inhibition (IC50) required 6.6 nM.

On human PD-L1, `COc1cc(-c2nccc(-c3cccc(-c4ccc(CNC5CCN(C(C)=O)CC5)c(OC)n4)c3Cl)c2Cl)ccc1CNC1CCNCC1` [Example 417, 1-(4-(((6-(2-chloro-3-(3-chloro-2-(3-methoxy-4-((piperidin-4-ylamino)methyl)phenyl)pyridin-4-yl)phenyl)-2-methoxypyridin-3-yl)methyl)amino)piperidin-1-yl)ethan-1-one] yielded an EC50 of 58.3 nM. Moreover, it took 3.67 nM to reach half-maximal inhibition in experiment [1] (IC50).

Turning to `COc1cc(-c2nccc(-c3cccc(-c4ccc(CNC5CCN(C(=O)c6ccco6)CC5)c(OC)n4)c3Cl)c2Cl)ccc1CNC1CCN(C(=O)c2ccco2)CC1` [Example 421, (4-(((6-(2-Chloro-3-(3-chloro-2-(4-(((1-(furan-2-carbonyl)piperidin-4-yl)amino)methyl)-3-methoxyphenyl)pyridin-4-yl)phenyl)-2-methoxypyridin-3-yl)methyl)amino)piperidin-1-yl)(furan-2-yl)methanone], the concentration for a half-maximal effect (EC50) on human PD-L1 came to 47.7 nM. Further, the IC50 in experiment [1] stood at 1.86 nM.

At human PD-L1, `COc1cc(-c2nccc(-c3cccc(-c4ccc(CNC5CCN(C(=O)c6ccccc6)CC5)c(OC)n4)c3Cl)c2Cl)ccc1CNC1CCN(C(=O)c2ccccc2)CC1` [Example 422, (4-(((6-(3-(2-(4-(((1-Benzoylpiperidin-4-yl)amino)methyl)-3-methoxyphenyl)-3-chloropyridin-4-yl)-2-chlorophenyl)-2-methoxypyridin-3-yl)methyl)amino)piperidin-1-yl)(phenyl)methanone] came in with an EC50 of 75.5 nM. In experiment [1], this molecule gave an IC50 of 0.9 nM.
